Literature values in patent US6977269B1, “Method of improving animal tissue quality” (Pioneer Hi-Bred International, Inc, priority 2001, dated 2005).
Like-named read-outs stand apart in the source and are kept apart here.

What was measured:
[1] = compared with gamma-tocopherol; cited from earlier work
[2] = design: unit not given here; settings: cited from earlier work

Compound | water solubility [1] | tissue level ([2]; 400 IU/KG per steer daily for 180 days) | tissue level ([2]; 500 IU/KG per steer daily for 126 days) | tissue level ([2]; 1300 IU/KG per steer daily for 44 days) | tissue level ([2]; 2000 IU/KG per steer daily for 100 days)
Cc1c(O)cc2c(c1C)OC(C)(C(=O)O)CC2 (centres unmarked) [6-hydroxy-2,7,8-trimethylchroman-2-carboxylic acid] | more water soluble than gamma-tocopherol | – | – | – | –
vitamin E | – | 3.3 | 2.5 | 3.3 | 6.1
